Experimental data reported in PubChem BioAssay (NCI).
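Exposure lasted 48 hours, with cells grown in 96-well plates and compounds tested at five concentrations. Here, GI50 denotes the concentration required for 50% inhibition of growth. TGI: concentration producing complete growth inhibition.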

Columns and labels:
Test in all cases: growth of human tumour cells (NCI), 48 h
MALME-3M melanoma = test system: MALME-3M melanoma
MDA-MB-231 breast = test system: MDA-MB-231 breast
TK-10 renal = test system: TK-10 renal
UACC-62 melanoma = test system: UACC-62 melanoma
NCI-H460 lung = test system: NCI-H460 lung
NCI-H23 lung = test system: NCI-H23 lung
SF-539 CNS = test system: SF-539 CNS
SK-OV-3 ovarian = test system: SK-OV-3 ovarian
NCI-H522 lung = test system: NCI-H522 lung
NCI-H226 lung = test system: NCI-H226 lung

| Structure (SMILES) | TGI (MALME-3M melanoma) | TGI (MDA-MB-231 breast) | TGI (TK-10 renal) | TGI (UACC-62 melanoma) | TGI (NCI-H460 lung) | TGI (NCI-H23 lung) | TGI (SF-539 CNS) | TGI (SK-OV-3 ovarian) | TGI (NCI-H522 lung) | TGI (NCI-H226 lung) | GI50 (NCI-H226 lung) | GI50 (MDA-MB-231 breast) | GI50 (TK-10 renal) | GI50 (UACC-62 melanoma) | GI50 (NCI-H460 lung) | GI50 (SF-539 CNS) | GI50 (SK-OV-3 ovarian) | GI50 (NCI-H522 lung) | GI50 (NCI-H23 lung) | GI50 (MALME-3M melanoma) |
| --- | --- | --- | --- | --- | --- | --- | --- | --- | --- | --- | --- | --- | --- | --- | --- | --- | --- | --- | --- | --- |
| CC(=O)OC(C)(C)/C=C/C(=O)[C@](C)(O)[C@H]1[C@H](O)C[C@@]2(C)[C@@H]3CC=C4[C@@H](C[C@H](O)C(=O)C4(C)C)[C@]3(C)C(=O)C[C@]12C | 1.55 µM | < 0.01 µM | < 0.01 µM | 2.17 µM | 1.37 µM | 4.07 µM | < 0.01 µM | < 0.0234 µM | < 0.01 µM | – | – | – | – | – | – | – | – | – | – | – |
| COC(=O)c1ccc(N=NN(C)CO)cc1 | > 100 µM | – | > 100 µM | > 100 µM | > 100 µM | > 100 µM | > 100 µM | > 100 µM | > 100 µM | > 100 µM | – | – | – | – | – | – | – | – | – | – |
| CS(=O)c1ccc(COP(N)(=O)N(CCCl)CCCl)cc1 (configuration not stated) | > 100 µM | – | > 100 µM | > 100 µM | > 100 µM | > 100 µM | > 100 µM | > 100 µM | > 100 µM | > 100 µM | – | – | – | – | – | – | – | – | – | – |
| CCOC(=O)CC1=CSC2=NCCN12 | > 100 µM | – | > 100 µM | > 100 µM | > 100 µM | > 100 µM | > 100 µM | > 100 µM | > 100 µM | > 100 µM | – | – | – | – | – | – | – | – | – | – |
| O=S1(=O)C[C@@H](O)[C@H](O)CS1 | > 100 µM | – | > 100 µM | > 100 µM | > 100 µM | > 100 µM | > 100 µM | > 100 µM | > 100 µM | > 100 µM | – | – | – | – | – | – | – | – | – | – |
| Cc1c2cc[nH]c(=O)c2cc2c(=O)c3cnccc3[nH]c12 | > 100 µM | – | > 100 µM | > 100 µM | > 100 µM | > 100 µM | – | > 100 µM | > 100 µM | > 100 µM | – | – | – | – | – | – | – | – | – | – |
| O=c1cc(-c2ccccc2)nc2n1CCN2Cc1ccccc1 | – | > 100 µM | 95.7 µM | 66.7 µM | > 100 µM | – | 73.5 µM | > 100 µM | 56.1 µM | > 100 µM | 54.7 µM | 32.2 µM | 26.5 µM | 19.8 µM | 36 µM | 27.8 µM | 51.3 µM | 20.8 µM | – | – |
| CCOC(=O)C(C)c1cc(C2(C)OCCO2)c(C)o1 (configuration not stated) | > 100 µM | – | > 100 µM | > 100 µM | > 100 µM | > 100 µM | > 100 µM | > 100 µM | – | – | – | – | – | – | – | – | – | – | – | – |
| CC(C(=O)Oc1ccc2ccccc2c1-c1c(O)ccc2ccccc12)c1ccccc1 (configuration not stated) | 34.8 µM | – | 32.8 µM | 27 µM | 27.6 µM | 30.3 µM | 33.9 µM | 29.6 µM | – | 26.5 µM | – | – | – | – | – | – | – | – | – | – |
| CCSc1nc(N=Cc2cccs2)c2cn[nH]c2n1 | – | > 100 µM | 41.1 µM | 23.1 µM | > 100 µM | 23.2 µM | > 100 µM | > 100 µM | > 100 µM | 43.2 µM | 0.299 µM | 4.51 µM | 9.47 µM | 8.39 µM | 14.5 µM | 25.3 µM | 56 µM | 48.5 µM | 11.2 µM | – |
| COC(=O)c1c(CC#N)cccc1CC#N | > 100 µM | – | – | > 100 µM | > 100 µM | > 100 µM | > 100 µM | > 100 µM | > 100 µM | > 100 µM | – | – | – | – | – | – | – | – | – | – |
| ON=C1CCC(c2ccccc2)CC1 (configuration not stated) | > 100 µM | – | > 100 µM | > 100 µM | > 100 µM | > 100 µM | > 100 µM | > 100 µM | > 100 µM | > 100 µM | – | – | – | – | – | – | – | – | – | – |
| COC(=O)C(Nc1ccc(OC)cc1)c1ccccc1 (configuration not stated) | – | – | > 100 µM | > 100 µM | > 100 µM | > 100 µM | > 100 µM | – | > 100 µM | – | – | – | – | – | – | – | – | – | – | – |
| COc1ccc(-c2nc(-c3ccccc3)c(-c3ccccc3)n2C2CC2)cc1OC1CCCC1 | – | > 165 µM | – | – | > 165 µM | > 165 µM | > 165 µM | > 165 µM | > 165 µM | > 165 µM | 83.7 µM | > 165 µM | – | – | 11 µM | 90.9 µM | > 165 µM | 62.1 µM | > 165 µM | – |
| CCOC(=O)c1ccc(N2C(=O)/C(=C\OC)c3ccccc3C2=O)cc1 | > 100 µM | – | > 100 µM | > 100 µM | – | > 100 µM | > 100 µM | 41.9 µM | > 100 µM | > 100 µM | – | – | – | – | – | – | – | – | – | – |
| Nc1c(-c2nc3ccccc3[nH]2)sc(=S)n1-c1ccccc1 | > 100 µM | – | – | 70 µM | > 100 µM | > 100 µM | > 100 µM | > 100 µM | > 100 µM | > 100 µM | – | – | – | – | – | – | – | – | – | – |
| O=C([CH-]C(=O)c1ccccc1)c1ccccc1.O=C([CH-]C(=O)c1ccccc1)c1ccccc1.[Nd+3].[OH-].[OH3+] | 53.2 µM | – | > 100 µM | 22.2 µM | 25.3 µM | 18.6 µM | 48 µM | 48.2 µM | 13.3 µM | 8.28 µM | 1.94 µM | – | 26.4 µM | 4.76 µM | 6.18 µM | 15.8 µM | 14.5 µM | 1.42 µM | 3.91 µM | 12.4 µM |
| COc1ccc(/C=C2/C[N+](C)(C)C/C(=C/c3ccc(OC)cc3)C2=O)cc1 | 61.3 µM | – | > 100 µM | 47.5 µM | > 100 µM | > 100 µM | > 100 µM | > 100 µM | 37.9 µM | > 100 µM | – | – | – | – | – | – | – | – | – | – |
| N.N.NC(CS)C(=O)[O-].NC(CS)C(=O)[O-].[Pt+4] (configuration not stated) | > 50 µM | – | > 50 µM | > 50 µM | > 50 µM | > 50 µM | > 50 µM | > 50 µM | > 50 µM | > 50 µM | > 50 µM | – | > 50 µM | > 50 µM | > 50 µM | > 50 µM | > 50 µM | > 50 µM | > 50 µM | > 50 µM |
| CC1=Cc2cc3[n-]c(cc4nc(cc5[n-]c(cc1n2)cc5C)C(C)=C4CCC(=O)O)c(CCC(=O)O)c3C.[Pd+2] | 38.5 µM | – | 52.9 µM | 34.1 µM | 59.2 µM | 25.2 µM | 13.7 µM | 30.1 µM | > 26.7 µM | 17.8 µM | 8.95 µM | – | 24.9 µM | 5.29 µM | 33.5 µM | 3.71 µM | 11.5 µM | – | 9.55 µM | 10.5 µM |
